# Patent publication US20060057069A1, “Detection of protein expression in vivo using fluorescent puromycin conjugates” (CALIFORNIA INSTITUTE OF TECHNOLOGY, priority 2004, published 2006)
# Where a name gives a salt, the structure may show the parent alone. Read-outs that look alike come from different tables or passages of the source.
# Key:
# [1] = system: cultured hippocampal neurons; test: F2P (fluorescein-dC-puromycin) reporter of endogenous protein synthesis in cultured hippocampal neurons; type: cell-based, rat; conditions: for effect of co-application on basal F2P fluorescence in dendrites: co-application with F2P
# Description: Dissociated hippocampal neurons were prepared and maintained as previously described. Briefly, hippocampi from postnatal day 2 Sprague-Dawley rat pups were enzymatically and mechanically dissociated and plated into poly-lysine coated glass-bottom petri dishes (Mattek). Neurons were maintained for 14-21 days at 37° C. in growth medium (Neurobasal A supplemented with B27 and Glutamax-1, Invitrogen).
# All images were acquired with an Olympus IX-70 confocal laser scanning microscope running Fluoview software (Olympus America, Inc). GFP, Alexa 488, and F2P were excited with the 488 nm line of an argon ion laser, and emitted light was collected between 510 and 550 nm. Alexa 568 was excited with the 568 nm line of a krypton ion laser, and emitted light was collected above 600 nm. In experiments where two channels were acquired simultaneously, settings were chosen to ensure no signal bleed-through between channels. For between-dish comparisons on a given day, all images were acquired at the same settings, without knowledge of the experimental condition during image acquisition. All post-acquisition processing and analysis was carried out with ImageJ (NIH) and Matlab (The MathWorks, Inc.). To facilitate the analysis of fluorescence signal as a function of distance from the soma, dendrites were linearized and extracted from the full-frame image using a modified version of the Straighten plugin for ImageJ.
# To determine whether D1/D5 receptors activate the translation of endogenous mRNAs in living neurons, fluorescein-dC-puromycin (F2P), a novel protein synthesis reporter based on the peptidyl transferase inhibitor puromycin [35] was used. Because puromycin is a structural analog of an amino-acyl tRNA molecule, it enters ribosomes actively engaged in translation where it becomes covalently attached to the carboxy-terminus of nascent proteins through a peptide linkage. Initially, whether F2P can serve as a protein synthesis reporter in cultured hippocampal neurons was examined (FIGS. 11A, B). […] (FIG. 11B).
# dopamine D1/D5 receptor = test: GFP protein synthesis reporter imaging in cultured hippocampal neurons; type: cell-based, rat; conditions: co-application with SKF
# Description: Dissociated hippocampal neurons were prepared and maintained as previously described [34]. Briefly, hippocampi from postnatal day 2 Sprague-Dawley rat pups were enzymatically and mechanically dissociated and plated into poly-lysine coated glass-bottom petri dishes (Mattek). Neurons were maintained for 14-21 days at 37° C. in growth medium (Neurobasal A supplemented with B27 and Glutamax-1, Invitrogen).
# All images were acquired with an Olympus IX-70 confocal laser scanning microscope running Fluoview software (Olympus America, Inc). GFP, Alexa 488, and F2P were excited with the 488 nm line of an argon ion laser, and emitted light was collected between 510 and 550 nm. Alexa 568 was excited with the 568 nm line of a krypton ion laser, and emitted light was collected above 600 nm. […] To facilitate the analysis of fluorescence signal as a function of distance from the soma, dendrites were linearized and extracted from the full-frame image using a modified version of the Straighten plugin for ImageJ.
# Dendrites were analyzed for time-lapse as follows: fluorescence was averaged across the width of linearized dendrites, generating a vector of mean pixel intensities equal to the length of the dendrite, ΔF/F (Ftn-Ft0/Ft0) was then computed at each pixel along the dendritic length. […]
# D1/D5 receptors = test: Miniature excitatory postsynaptic currents (mEPSCs) in cultured hippocampal neurons; type: cell-based, rat; conditions: anisomycin with DHX; PKI6-22 in the recording pipette
# Source text: Given the increase in the total and synaptic GluRl population, the effects of dopamine agonists on synaptic transmission was examined. To monitor synaptic strength before and after exposure to a dopamine agonist, miniature excitatory postsynaptic currents (mEPSCs) in cultured hippocampal neurons were examined.
# 16610D9 thymocyte cells [2] = test: Western analysis of treated cells with anti-fluorescein antibody; type: cell-based, mouse; conditions: conjugates 25 μM; anisomycin 250 ng/mL
# Description: Live cell number was determined using trypan blue exclusion dye and each sample was adjusted to contain an equal number of live cells. Cell pellets were resuspended in 2× lysis buffer (100 mM β-glycerophosphate, 3 mM EGTA, 2 mM EDTA, 0.2 mM sodium-orthovanadate, 2 mM DTT, 20 μg/ml aprotinin, 20 μg/ml leupeptin, 50 μg/ml trypsin inhibitor, and 4 μg/ml pepstatin, and 1% Triton X-100) and incubated on ice for 30 min. Cell debris was removed by centrifugation at 20,000×g for 30 min. Cell lysate was combined with SDS loading buffer (0.12 M Tris-Cl (pH 6.8), 20% glycerol, 4% (w/v) SDS, 2% (v/v) β-mercaptoethanol, and 0.001% bromophenol blue) and heated at 90° C. for 10 min. Samples were applied entirely to a 4% stacking portion of a 10% glycine-SDS-polyacrylamide gel (30 mA for 1 h, 30 min). Protein was transferred using standard Western transfer techniques and the blot was probed with an anti-fluorescein antibody followed by an anti-rabbit-horseradish peroxidase conjugate (Pierce chemicals). The chemiluminescence reaction was carried out using the ECL PLUS Western Blotting […] System (Amersham BioSciences).
# Action of puromycin and the conjugates should result in proteins bearing these compounds at their C-terminus in vivo. Western blot analysis of cellular lysates was chosen to examine if incorporation occurred in vivo and compare the resulting signal with the control conjugates. […]
# [3] = system: 16610D9 cells infected with MIG; test: Killing of MIG-infected (no PAC resistance) cells, flow cytometry; type: cell-based, mouse; conditions: long exposure, 48 h incubation
# Description: (§1) The PAC gene was cloned into MIG using BgII and EcoRI restriction sites to yield MIGPAC. 293T-HEK fibroblasts (American Tissue Culture Collection) were co-transfected with pECL-Eco [30] and MIG or MIGPAC by calcium phosphate precipitation. After 12 hours, the precipitate was removed, cells were washed once with PBS, and 4 mL of fresh complete Dulbecco's Modified Eagle Medium (DMEM) supplemented with 10% fetal calf serum (FCS). Viral supernatant was removed 24 hours later and used in infection of 16610D9 cells. One million D9 cells were spin-infected with 0.4 mL of viral supernatant suplemented with 5 μg/ml Polybrene (Sigma-Aldrich).
# (§2) 16610D9 cells infected with either MIG of MIGPAC were cultured in RPMI media with 10% FBS and grown at […] in a humidified atmosphere with 5% CO2. For each experiment, 16610D9 cells (0.25×10^6/well) were added to 24-well microtiter plates along with puromycin, puromycin-conjugate, and control molecules dissolved in the minimum amount of either media or PBS. After a 48 h incubation, the cells were washed twice in 2 mL PBS+4% FCS and resuspended in PBS+4% FCS supplemented with 2% formaldehyde along with incubation at 37° C. for 10 min. […]
# (§3) Foreign genes can be inserted into D9 cells by infection with a viral vector (see Experimental Procedures). […] MIG expresses GFP so that infection efficiency can be monitored by GFP fluorescence (FIG. 7A). […]
# [4] = system: 16610D9 cells infected with MIGPAC; test: Enrichment of GFP(+) MIGPAC-infected (PAC-expressing) cells, flow cytometry; type: cell-based, mouse; conditions: 48 h; 4.3% GFP-positive before treatment
# Description: as §1, §2, §3
# globin translation [5] = conditions: previously shown, ref [14]; read-out: IC50 (in vitro translation inhibition) from reference [14]; cited from earlier work
# 16610D9 thymocyte cells [6] = test: Detection of protein synthesis events in live cells by flow cytometry (fluorescence labeling); type: cell-based
# Description: 16610D9 cells (0.5 million mL^−1) were combined with the various puromycin conjugates and control molecules resuspended in the minimum volume of PBS or media as described above. After a 24 h incubation, the cells were washed twice in 2 mL PBS+4% FCS and resuspended in PBS+4% FCS supplemented with 2% formaldehyde followed by incubation at 37° C. for 10 min or used directly after washing for immediate flow cytometry analysis.
# In order to analyze the activity of puromycin conjugates in vivo, choosing of both an appropriate cell line and an appropriate quantitation and detection scheme was needed. While microscopy is a powerful means to analyze individual cells and small sections of tissue, performance of experiments where thousands to millions of cells could be examined for protein labeling was desired. Therefore, flow cytometry was chosen as the primary means to analyze uptake and incorporation of the conjugates. In addition to providing a quantitative measure of fluorescence and cell size, flow cytometry methods enable live cells and dead cells to be readily distinguished.
# globin translation [7] = test: In vitro potency determination: inhibition of globin mRNA translation in rabbit reticulocyte lysate; type: biochemical; conditions: read-out: IC50: concentration of puromycin conjugate required for 50% inhibition of globin translation, 30° C. 60 min, standard error <5% in replicates
# Description: Translation reactions containing [^35S]Met were mixed in batch on ice and added in aliquots to microcentrifuge tubes containing an appropriate amount of puromycin conjugate (or control molecule) dried in vacuo. […] Inhibitor, lysate preparation (including all components except template), and globin mRNA were mixed simultaneously and incubated at 30° C. for 60 min. Each reaction (2 μL) was combined with 8 μL of tricine loading buffer (80 mM Tris-Cl (pH 6.8), 200 mM DTT, 24% (v/v) glycerol, 8% sodium dodecyl sulfate (SDS), and 0.02% (w/v) Coomassie blue G-250), heated to 90° C. for 5 min, and applied entirely to a 4% stacking portion of a 15% tricine-SDS-polyacrylamide gel containing 20% (v/v) glycerol [29] (30 mA for 1 h, 30 min). Gels were fixed in 10% acetic acid (v/v) and 50% (v/v) methanol, dried, exposed overnight on a Phosphorlmager screen, and analyzed using a Storm Phosphorlmager (Molecular Dynamics).
# Initial analysis began by examining the activity of each of the conjugates in vitro for their ability to inhibit protein translation.
# [8] = 24 h incubation, conjugates at 50 μM, live-cell gate
molecule,measurement,setting,value
"Oc1cc2c(cc1O)[C@H]1c3ccccc3CN[C@@H]1CC2 (racemic) [DHX, dihydrexidine]",F2P incorporation in locally perfused dendrites compared to control dendrites,"[1]; perfused 15 minutes on dendritic segment, p<0.05, n=8 dendrites",significantly greater F2P incorporation
COc1ccc(C[C@H]2NC[C@H](O)[C@H]2OC(C)=O)cc1 [anisomycin],effect of co-application on basal F2P fluorescence in dendrites,[1],significantly attenuated
same,effect on DHX-produced enhancement of F2P incorporation,"[1]; preincubation and perfusion with anisomycin, p<0.01",completely blocked
same,effect of co-application on the effects of SKF on GFP signal,dopamine D1/D5 receptor,completely prevented
same,effect on DHX-induced increase in mEPSC frequency,D1/D5 receptors,completely prevented
same,incorporation into cellular protein (anti-fluorescein Western signal),16610D9 thymocyte cells [2],essentially no signal
"COc1ccc(C[C@H](N)C(=O)N[C@H]2[C@@H](O)[C@H](n3cnc4c(N(C)C)ncnc43)O[C@@H]2CO)cc1 [puromycin, L-Puromycin hydrochloride]",effect of co-application on basal F2P fluorescence in dendrites,[1],significantly attenuated
same,effect on MIG infected cells (killing),[3],almost complete killing of both GFP-positive and GFP-negative cells
same,GFP-positive cells in population after treatment,[4],94%
Fluorescein-puromycin [FP],IC50,globin translation [5],120 µM
same,rank order of fluorescence enhancement,16610D9 thymocyte cells [6]; [8],DMT-F2P-Me (12)>FB2P (1)˜BF2P (8)>F2P (4)˜F2P-Me (10)>FP
same,relative level of fluorescence enhancement,16610D9 thymocyte cells [6]; [8],small fluorescence enhancement
biotin-dC-puromycin,IC50,globin translation [5],11 µM
biotin-puromycin,IC50,globin translation [5],54 µM
fluorescein-dC-puromycin [F2P],F2P reporter fluorescence in neurons,[1]; brief (˜15 min) bath application,fluorescence detected in both the cell body and the dendrites
same,IC50,globin translation [7],22 µM
same,enhanced fluorescence relative to the F2A control molecule,"16610D9 thymocyte cells [6]; 5 μM and 25 μM, live cell population",up to 4 fold
same,effect on cell viability,"16610D9 thymocyte cells [6]; 5 μM and 25 μM, F2P statement for 48 hours incubation",kills the majority of cells
same,rank order of fluorescence enhancement,16610D9 thymocyte cells [6]; [8],DMT-F2P-Me (12)>FB2P (1)˜BF2P (8)>F2P (4)˜F2P-Me (10)>FP
